Experimental findings from paper PMC12217463, “Functional and structural analyses of amino acid sequence variation in PDC β-lactamase reveal different mechanistic pathways toward cefiderocol resistance in Pseudomonas aeruginosa” (Antimicrobial Agents and Chemotherapy, 2025) are described below.

In brackets after ≈: the same amount, converted by molar mass.

Experiment in all cases: MIC, broth microdilution
What all share (type): cell-based

The test system of experiment [1] is PAO1 + blaPDC F121L + E219K. The conditions noted are these: Pseudomonas aeruginosa. An excerpt: (§1) We took advantage of a previously constructed and characterized laboratory collection of recombinant P. aeruginosa PAO1 isolates expressing different blaPDC variants, but specifically enriched for this work with additional variants, following the previously described methodology ([17]). […] The final collection comprised 40 recombinant isolates (20 in PAO1 and 20 in PAO ΔpiuC) producing the wild-type PDC-1 variant from PAO1 and 19 derivatives carrying specific amino acid substitutions previously associated with the development of resistance to ceftazidime/avibactam, ceftolozane/tazobactam, or cefiderocol: T70I, F121L, P153L, G156D, A200T, G202S, ΔG202-E219, G214R, P215L, P215S, ΔP215-G222, D217N, E219K, E219G, E219D, S226ins, L293P, F121L + E219K, and F121L + G222S.
(§2) The MICs of ceftazidime, ceftazidime/avibactam, ceftolozane/tazobactam, cefepime, and cefiderocol were determined in triplicate, for all isolates, by reference broth microdilution assays. Avibactam and tazobactam were fixed at 4 mg/L. All assays were performed using cation-adjusted Mueller-Hinton broth (CAMHB), except for cefiderocol, which was determined in all cases using iron-depleted CAMHB, prepared according to CLSI M100 guidelines ([40]). EUCAST v.15.0 clinical breakpoints and guidelines (http://www.eucast.org/clinical_breakpoints/) were used for reference purposes. Reference strains Escherichia coli ATCC 25922, Klebsiella pneumoniae ATCC 700603, and P. aeruginosa ATCC 27853 were used as controls.

For experiment [2], the system named is PAO1 + blaPDC P215S. The conditions noted are these: Pseudomonas aeruginosa.
Text: as §1, §2

The test system of experiment [3] is PAO1 + blaPDC F121L. The conditions noted are these: Pseudomonas aeruginosa.
Text: as §1, §2

The test system of experiment [4] is PAO1 + blaPDC G202S. The conditions noted are these: Pseudomonas aeruginosa.
Text: as §1, §2

Experiment [5] deals with PAO1 + blaPDC-1 (WT). The note with it: Pseudomonas aeruginosa, avibactam and tazobactam fixed at 4 mg/L, FDC in iron-depleted CAMHB.
Text: as §1, §2

In experiment [6] the test system is PAO1 + blaPDC P215L. The note with it: Pseudomonas aeruginosa.
Text: as §1, §2

Experiment [7] has as its system PAO1 + blaPDC T70I. The note with it: Pseudomonas aeruginosa.
Text: as §1, §2

In experiment [8] the test system is PAO1 + blaPDC S226ins. The conditions noted are these: Pseudomonas aeruginosa, avibactam and tazobactam fixed at 4 mg/L, FDC in iron-depleted CAMHB.
Text: as §1, §2

In experiment [9] the test system is PAO1 + blaPDC G156D. The note with it: Pseudomonas aeruginosa.
Text: as §1, §2

The test system of experiment [10] is PAO1 + blaPDC G214R. The note with it: Pseudomonas aeruginosa.
Text: as §1, §2

For experiment [11], the system named is PAO1 + blaPDC E219D. The note with it: Pseudomonas aeruginosa.
Text: as §1, §2

Experiment [12] relates to PAO1 + blaPDC A200T. The note with it: Pseudomonas aeruginosa.
Text: as §1, §2

Experiment [13] relates to PAO1. The conditions noted are these: Pseudomonas aeruginosa; PAO1 wild type, no plasmid-borne PDC; avibactam and tazobactam fixed at 4 mg/L; FDC in iron-depleted CAMHB.
Text: as §1, §2

Experiment [14] concerns PAO1 + blaPDC L293P. The conditions noted are these: Pseudomonas aeruginosa.
Text: as §1, §2

The subject of experiment [15] is PAO1 + blaPDC ∆P215-G222. The conditions noted are these: Pseudomonas aeruginosa, avibactam and tazobactam fixed at 4 mg/L, FDC in iron-depleted CAMHB.
Text: as §1, §2

In experiment [16] the test system is PAO1 + blaPDC P153L. The note with it: Pseudomonas aeruginosa.
Text: as §1, §2

For experiment [17], the system named is PAO1 + blaPDC D217N. The conditions noted are these: Pseudomonas aeruginosa.
Text: as §1, §2

For experiment [18], the system named is PAO1 + blaPDC E219K. The note with it: Pseudomonas aeruginosa.
Text: as §1, §2

Turning to `CC(C)(O/N=C(\C(=O)N[C@@H]1C(=O)N2C(C(=O)[O-])=C(C[N+]3(CCNC(=O)c4ccc(O)c(O)c4Cl)CCCC3)CS[C@H]12)c1csc(N)n1)C(=O)O` [FDC, cefiderocol], the MIC in experiment [1] worked out at 4 µg/mL (≈ 5.32 µM); in experiment [2], 0.5 µg/mL (≈ 0.665 µM); in [3], 0.5 µg/mL (≈ 0.665 µM); in experiment [4] it was 0.5 µg/mL (≈ 0.665 µM); in experiment [5] it was 0.25 µg/mL; in experiment [6] it was 0.5 µg/mL (≈ 0.665 µM). The MIC came to 0.5 µg/mL (≈ 0.665 µM) in [7]; 0.5 µg/mL in experiment [8]; 0.5 µg/mL (≈ 0.665 µM) in [9]; 1 µg/mL (≈ 1.33 µM) in [10]; 0.5 µg/mL (≈ 0.665 µM) in experiment [11]; 0.5 µg/mL (≈ 0.665 µM) in [12]. In addition, the MIC was determined as 0.125 µg/mL in experiment [13]; 4 µg/mL (≈ 5.32 µM) in [14]; 2 µg/mL in [15]; 0.5 µg/mL (≈ 0.665 µM) in experiment [16]; 0.5 µg/mL (≈ 0.665 µM) in [17]; 4 µg/mL (≈ 5.32 µM) in experiment [18].
